In assay [1] the test system is mutated form of SPT (C133W). It is filed as cell-based. The note with it: HEK293 C133W; for SPT activity: fumonisin B1 24 h, 1 mM L-cycloserine, 10 mM D-serine. The protocol:
Cells were cultivated in normal media without any supplementation (A) or in the presence of 10 mM L-alanine (B), 10 mM glycine (C); 1 mM L-cycloserine (D); 10 mM D-alanine (E), 10 mM D-serine (F) or 10 mM L-serine (G).
HEK293 cells expressing a mutated form of SPT (C133W) were cultured in the presence of various amino acids and structurally related compounds. The cells were additionally treated with fumonisin B1 (see Example 1).
(§1) A further suitable method to screen for putative suppressors of deoxy-sphingolipid synthesis is as follows: a suitable cell line (e.g. HEK293) is cultured to approximately 60% confluency. The compound of interest is added to the culture medium in the appropriate concentration. Additionally, fumonisin B1 (FB1) is added to a final concentration of 10 μg/ml. After 24 h of incubation, cells are washed with PBS and harvested and an aliquot separated for cell counting. The remaining cells are pelleted and extracted in 500 μl extraction buffer (4 volumes MeOH/KOH+1 volume CHCl3), including an internal reference standard (e.g. deuteriated (d7)-sphinganine, (d7)-sphingosine or synthetic C17-sphingosine). Subsequently, 500 μl chloroform, 500 μl alkaline water and 100 μl 2N ammonia are added, followed by centrifugation (120000×g, 5 min). The upper phase is discarded and the organic phase washed twice with alkaline water. Lipids are dried under a stream of N2 and resolubilized in 50 μl ethanol (95%) and 100 μl methanol:H2O (85:15). The lipids are finally derivatized with o-phthaldialdehyde (OPA) and analysed by LC-MS. OPA derivates are separated on a C18 column. Mobile phase is ammonium acetate (5 mM):methanol=17:83 (25 min, isocratic), followed by a wash with 100% methanol (5 min) at a flow rate of 300 μl/min. Deoxysphingoid bases are ionised by APCI (atmospheric pressure chemical ionisation) and analysed in positive ion mode.

Assay [2] deals with cellular SPT activity. Briefly: Accumulation of sphingoid bases in HEK 293 wt cells treated with fumonisin B1 and cytostatics. In kind it is cell-based. The note with it: for DoxSA generation / SA (sphinganine) generation / accumulation: fumonisin B1, increasing concentrations of drug. The procedure:
HEK 293 wt cells were cultured in the presence of increasing concentrations of paclitaxel (FIG. 6-I), etoposide (FIG. 6-II) and thalidomide (FIG. 6-III). The cells were additionally treated with fumonisin B1 (FB1), an inhibitor of ceramide synthase (CerS). The inhibition of CerS leads to an intracellular accumulation of the SPT products, namely sphinganine, deoxy-sphinganine. Since the SPT reaction is the rate limiting step in the de novo synthesis pathway, the amount of accumulated sphingoid bases is a measure of the cellular SPT activity. […] Etoposide increased sphinganine and DoxSA production. […] In contrast to paclitaxel and etiposide, the non-cytostatic thalidomide (FIG. 6-III) had no effect.
as §1

The subject of assay [3] is HSAN1 mice. Briefly: L-serine or L-alanine enriched diet in transgenic HSAN1 mice (C133W SPTLC1). In kind it is in vivo. The text has this: Mice received an L-serine or L-alanine enriched diet (10% L-Serine or L-Alanine w/w) for a period 15 days. […] Plasma deoxy-sphingolipid levels remained low during the whole treatment period (A, pmol/ml; B, days).
Transgenic mice expressing a mutant (C133W) form of SPTLC1 develop a peripheral neuropathy within 10 to 15 months of life. The development of a neuropathy in these HSAN1 mice correlates with highly elevated deoxy-sphinganine and deoxy-sphingosine plasma levels.

Assay [4] deals with SPT (wt enzyme). In words: DoxSA formation in HEK293 wt cells at various L-serine:L-alanine ratios in the presence of FB1. In kind it is cell-based. The note with it: increasing L-serine medium concentrations, varying L-alanine concentrations. The protocol:
(§2) HEK293 wt cells (FIG. 7-I) and Hek cells expressing various mutant forms of SPT (wt, C133W, C133Y, V144D) (FIG. 7-II) were cultured at various L-serine:L-alanine ratios in the presence of FB1 (see above Example 1). […] In the second approach L-alanine concentrations were held constant at 2 mM.
as §1, with “The upper phase is discarded and the organic phase washed twice with alkaline water. Lipids are dried under a stream of N2 and resolubilized in 50 μl ethanol (95%) and 100 μl methanol:H2O (85:15).” left out, “OPA derivates are separated on a C18 column. Mobile phase is ammonium acetate (5 mM):methanol=17:83 (25 min, isocratic), followed by a wash with 100% methanol (5 min) at a flow rate of 300 μl/min.” left out

The subject of assay [5] is mutant forms of SPT (C133W, C133Y, V144D). Briefly: DoxSA formation in Hek cells expressing mutant forms of SPT at increasing L-serine in the presence of FB1. The note with it: HSAN1 mutants C133W, increasing L-serine medium concentrations, L-alanine constant at 2 mM. It is filed as cell-based. The procedure:
as §2
as §1, with “The upper phase is discarded and the organic phase washed twice with alkaline water. Lipids are dried under a stream of N2 and resolubilized in 50 μl ethanol (95%) and 100 μl methanol:H2O (85:15).” left out, “OPA derivates are separated on a C18 column. Mobile phase is ammonium acetate (5 mM):methanol=17:83 (25 min, isocratic), followed by a wash with 100% methanol (5 min) at a flow rate of 300 μl/min.” left out

The test system of assay [6] is HSAN1 patients. Briefly: Oral L-serine supplementation in HSAN1 patients (C133Y). In kind it is in vivo, humans. The protocol: (A, weeks, B, μM; C, treatment phase; D, washout phase).
14 HSAN1 patients having the C133Y mutation received an oral serine supplementation for a period of 10 weeks followed by a wash out period of two weeks (FIG. 9). Patients were separated in a low dose and a high dose treatment group (n per group=7) receiving either 5 g or 10 g L-serine/day. The plasma sphingolipid composition was analyzed by an acid/base hydrolysis to release the free sphingoid bases. […] In both groups an up to 80% reduction in plasma deoxy-sphingolipid levels was observed. […] During the wash out phase the plasma deoxy-sphingolipid levels raised again.

Setting [7] is: fumonisin B1, 10 mM supplementation.

Turning to `N[C@H](CO)C(=O)O` [D-serine], the SPT activity result in assay [1] is given as “generally inhibitory”.
On to `COc1cc([C@@H]2c3cc4c(cc3[C@@H](O[C@@H]3O[C@@H]5CO[C@@H](C)O[C@H]5[C@H](O)[C@H]3O)[C@H]3COC(=O)[C@H]23)OCO4)cc(OC)c1O` [Etoposide, etoposide], for which, in assay [2] (fumonisin B1), the “concentration at which DoxSA showed a maximum” value is 0.5 mM. Moreover, in assay [2], the DoxSA generation result is “increased” and the “SA (sphinganine) generation / accumulation” value is reported as “increased in a dose dependant manner”.
On to `C[C@H](N)C(=O)O` [L-alanine, reference compound], for which the formation of deoxy-sphinganine result in assay [1] (setting [7]) is listed as “increased formation”. Moreover, in assay [3] (enriched diet), the plasma deoxy-sphingolipid levels entry was “increased” and the “time to first neuropathic symptoms” value was 2-3 months.
`N[C@@H](CO)C(=O)O` [L-serine]: the DoxSA formation entry in assay [4] was “significant decrease”; in assay [5], “significant decrease”; in assay [5] (listed as L-erine), “efficiently inhibited”. For the same molecule, the formation of sphinganine result in assay [1] (setting [7]) was “stimulates the formation”. The “generation of deoxy-sphingoid bases” value in assay [1] (setting [7]) was “suppresses”. The “plasma deoxy-sphinganine and deoxy-sphingosine levels vs untreated mice” value in assay [3] (enriched diet 10% w/w for 15 days, 3-4 days after start of treatment) is on record as “remarkable reduction”. Further, the “reduction in plasma deoxy-sphinganine and deoxy-sphingosine levels” value in assay [3] (enriched diet 10% w/w, after 4-5 days of treatment) is given as “up to 80%”. Also, the development of neuropathy result in assay [3] (enriched diet, until end of study (18 months), untreated controls neuropathic after 8 to 9 months) is on record as “did not develop a neuropathy”. The “difference between low and high dose group” value in assay [6] (5 g vs 10 g/day, plasma deoxy-sphingolipid levels) was “No significant differences”. Also, in assay [6] (HSAN1 patients C133Y, oral 5 g or 10 g/day), the “time to maximal suppression of plasma deoxy-sphinganine and deoxy-sphingosine levels” value turned out to be 6 weeks. Also, the “reduction in plasma deoxy-sphingolipid levels” value in assay [6] (HSAN1 patients C133Y, oral 5 g or 10 g/day, 10 weeks, both groups) was “up to 80%”. Moreover, the “deoxy-sphingolipid plasma levels during treatment period” value in assay [6] (HSAN1 patients C133Y, oral treatment over ten weeks, until end of treatment) was “remained suppressed”. Moreover, the “plasma deoxy-sphingolipid levels during wash out phase” value in assay [6] (two weeks wash out after 10 weeks of treatment) is recorded as “raised again”.
As to `CC(=O)O[C@H]1C(=O)[C@@]2(C)[C@H]([C@H](OC(=O)c3ccccc3)[C@]3(O)C[C@H](OC(=O)[C@H](O)[C@@H](NC(=O)c4ccccc4)c4ccccc4)C(C)=C1C3(C)C)[C@]1(OC(C)=O)CO[C@@H]1C[C@@H]2O` [Paclitaxel, paclitaxel], in assay [2], the DoxSA generation result is given as “stimulated DoxSA generation in a dose dependant manner” and the “SA (sphinganine) generation / accumulation” value is “not altered”.
On to `N[C@@H]1CON=C1O` [cycloserine, reference compound], for which, in assay [1], the SPT activity entry is “generally inhibitory”.
Consider `NCC(=O)O` [glycine, reference compound], for which the formation of deoxymethyl-sphinganine entry in assay [1] (setting [7]) is listed as “stimulate the formation”.
For the molecule `O=C1CCC(N2C(=O)c3ccccc3C2=O)C(=O)N1` (centres unmarked) [thalidomide], in assay [2], the DoxSA generation result was “no effect” and the “SA (sphinganine) generation / accumulation” value was “no effect”.

For the origin of these results see patent US20130005783A1, “Prevention And Treatment Of Diseases Caused By Elevated Levels Of Deoxy-Sphingolipids” (priority 2010, published 2013).
